We go through 1 compound from ChEMBL document CHEMBL1949522, “Acremostrictin, a highly oxygenated metabolite from the marine fungus Acremonium strictum” (J Nat Prod, 2011).

In assay [1] the test system is Escherichia coli. The experiment in a line: Antibacterial activity against Escherichia coli ATCC 35270 after 24 hrs. It is filed as functional. To be noted: ATCC 35270, 24 h.
Assay [2] deals with Staphylococcus aureus. The experiment in a line: Antibacterial activity against Staphylococcus aureus ATCC 6538p after 24 hrs. It is filed as functional.
The test system of assay [3] is K562. In words: Anticancer activity against human K562 cells. It is filed as functional, cell-based.
Assay [4] has as its system Radical scavenging activity. In words: Antioxidant activity assessed as DPPH radical-scavenging activity after 30 mins by spectrophotometric analysis. It is filed as functional. (Loss of DPPH colour is used to gauge radical scavenging.)
The subject of assay [5] is Proteus vulgaris. In words: Antibacterial activity against Proteus vulgaris ATCC 3851 after 24 hrs. To be noted: ATCC 3851, 24 h. It is filed as functional.
Assay [6] concerns Salmonella typhimurium. In words: Antibacterial activity against Salmonella Typhimurium ATCC 14028 after 24 hrs. Type of assay: functional, Salmonella enterica subsp. enterica serovar Typhimurium. To be noted: Salmonella enterica, ATCC 14028, 24 h.
Assay [7] has as its system Micrococcus luteus. In words: Antibacterial activity against Micrococcus luteus IFO 12708 after 24 hrs. To be noted: IFO 12708, 24 h. Type of assay: functional.
The subject of assay [8] is HaCaT. In words: Antioxidant activity in human HaCaT cells assessed as inhibition of H2O2-induced cell death pretreated for 1 hr prior to H2O2 challenge measured after 24 hrs by spectrophotometric analysis. Type of assay: functional, cell-based.
Assay [9] has as its system Bacillus subtilis. In words: Antibacterial activity against Bacillus subtilis ATCC 6633 after 24 hrs. To be noted: ATCC 6633, 24 h. It is filed as functional.

What is called MIC is the lowest concentration that inhibits growth of the organism. Low readings indicate greater potency, high ones weaker potency. As a reminder, the IC50 is the concentration that gives 50% inhibition.

In brackets after ≈: the same amount, converted by molar mass. Activity calls are given as the source filed them. The calls are words filed in the database; no cut-off is given here.

On to `CC1=C[C@@H]2C[C@]3(C)OC(=O)[C@@](O)([C@H]3C)[C@]2(O)C1=O` (relative stereo), for which the MIC is more than 100 µg/mL in assay [1]; more than 100 µg/mL in assay [2]; 12.5 µg/mL (≈ 49.6 µM) in assay [5]; 50 µg/mL (≈ 198 µM) in [6]; 50 µg/mL (≈ 198 µM) in assay [7]; more than 100 µg/mL in assay [9]. Moreover, in [3], the result was inactive. Also, the Activity result in assay [4] is “Dose-dependent effect”. In [4], the IC50 is 2100 µM. Moreover, the inhibition result in assay [8] is “Dose-dependent effect”.
